According to US11001802B2, “Surface of a vessel with polystyrene, nitrogen, oxygen and a static sessile contact angle for attachment and cultivation of cells” (Nunc A/S, priority 2008, dated 2021):

Tests used:
[1] = system: human ES cell line H9; assay: Attachment and colony formation of H9 human ES cells on surface modified plates with Rho kinase inhibitors (crystal violet, image analysis); assay type: cell-based; conditions: H9 on surface modified plates 2, 3, 4 and 13; crystal violet; Y-27632 at 10 μM
Description: Human ES cells of the line H9, at passage 40 were maintained in MEF conditioned media on Nunclon Delta™ plates treated with a 1:30 dilution of growth factor reduced Matrigel™, prior to study. Cells were dissociated from the surface for passage by 1 mg/ml collagenase dissociation or by manual scraping.
These cells were then seeded onto surface modified plates 2, 3, 4 and 13 (12-well format) in the presence of increasing amounts one of the following Rho Kinase inhibitors: Y-27632 (from Sigma, St. Louis, Mo. or EMD, San Diego, Calif.), Fasudil (Sigma), or Hydroxyfasudil (Sigma), and maintained for 3 days, each day replacing the media and compound. At the end of day three, media was removed and the plates were stained with Crystal Violet (0.5% in water) to visualize colonies.
It was attempted to determine the optimal dose of Y-27632 to promote cell binding, by treating cells with a range of plating concentrations of Y-27632 for the first day of culture. After the first day in culture cells were treated on subsequent days with a 10 μM concentration of Y-27632. It was observed that the maximal concentration to stimulate attachment and growth of ES cells was 10 μM (FIG. 12) and that this occurred on surface modified plates 2, 3, 4, 13 and CellBIND™ (Corning, Corning, N.Y.).
The effect of treating the cells continuously with a single dose of Y-27632 on attachment and growth was also tested. The cells were dosed with 0, 1, 4, or 10 μM Y-27632 for 4 days. Some binding was observed on surface modified plates without treatment (0 μM), however the optimal concentration to stimulate attachment and growth of ES cells was 10 μM Y-27632 (Table 4) on surface modified plates 2, 3, 4, 13.

[2] = system: HEK293 cells; assay: HEK293 attachment and growth, culture confluence by IncuCyte Plus (Examples 20, 21); assay type: cell-based, human
Description: HEK293 cells were maintained in EMEM (Lonza) containing 10% FBS (Lonza). Cells were passaged at 70-80% confluence using Trypsin/EDTA for dissociation, and seeded at c 2.0×10^4 cells/cm^2 in 75-cm^2 flasks with Nunclon Delta™ surface (Thermo Fisher Scientific, Roskilde, Denmark).
EMEM (500 μl) supplemented with 10% FBS containing 1.0, 5.0, 10, 15 or 20 μM Y-27632 (Sigma Chemical Co.), or 0.4, 1.2, 1.6, 2.4 or 2.8 μM H-1152 (Calbiochem, EMD Chemicals Inc., Darmstadt, Germany) was dispensed in Multidish 24-well plates with either Surface 4 or a non-treated (but gamma irradiated; 25 kGy) polystyrene surface. Another 500 μl of EMEM supplemented with 10% FBS and containing HEK293 cells were added to the wells (2.0×10^4 cells/cm^2). The cultures were placed in an IncuCyte™ Plus (Essen Instruments, Michigan, USA) and incubated at 37° C. in a humidified atmosphere of 5% CO2 in air. The IncuCyte™ Plus is an automated imaging platform, configured to fit inside a CO2 incubator, and designed to provide kinetic, non-invasive live cell imaging by acquiring phase contrast images of the cells at user-defined times and locations within the cultures. The primary metric of the instrument is culture confluence, that is, the fraction of the surface that is covered by cells. The HEK293 cells were incubated for 72 hours without manipulations, and images were collected every two hours at 9 positions in triplicate cultures. Culture confluence was determined using the IncuCyte™ Plus software (v. 3.4.1.25966).
EMEM (1.0 ml) supplemented with 10% FBS containing 0.4, 0.8, 1.2, 1.6, 2.0, 2.4 or 2.8 μM H-1152 was dispensed in Multidish 12-well plates with Surface 4. Another 1.0 ml of EMEM supplemented with […] and containing HEK293 cells were added to the wells (4.0×10^4 cells/cm^2). The cultures were placed in an IncuCyte™ Plus, and incubated at 37° C. in a humidified atmosphere of 5% CO2 in air for 42 hours (images were collected every 6 hours). One ml of culture medium was then removed by pipetting, and 1.0 ml EMEM supplemented with 10% FBS containing 0.2, 0.4, 0.6, 0.8, 1.0, 1.2 and 1.4 μM H-1152 was added. The cultures were placed in the IncuCyte™ Plus again, and images were collected every hour over the following 25 hours. Images were collected at 9 positions in triplicate cultures, and culture confluence was determined using the IncuCyte™ Plus software. Images from the IncuCyte™ Plus collected at specific positions in HEK293 cell cultures grown in the absence or presence of H-1152 (0.6 μM) was retrieved and presented as phase-contrast micrographs for the comparison of HEK293 culture morphology at the following time points: start of incubation (0 hours), just before medium change (42 hours), 1 hour after the medium change (43 hours), and, finally, after 52 hours of incubation.

Structure (SMILES) | attachment of ES cell colonies by day three [1] | effect of change of 50% of the medium after 42 hours on culture confluence ([2]; Surface 4, 0.2 μM or 0.4 μM H-1152) | effect of change of 50% of the medium after 42 hours on culture confluence ([2]; Surface 4, 0.6 μM, 0.8 μM or 1.4 μM H-1152) | attachment and growth of HEK293 cells ([2]; Surface 4, increasing concentration) | growth and attachment of HEK293 cells ([2]; non-treated polystyrene surface, 10 μM Y-27632, 0.6-1.2 μM H-1152)
O=c1[nH]ccc2c(S(=O)(=O)N3CCCNCC3)cccc12 [Hydroxyfasudil] | some colonies could be observed to attach and grow | – | – | – | –
Cc1cncc2cccc(S(=O)(=O)N3CCCNC[C@@H]3C)c12 [Surface H-1152, H-1152] | – | significant reduction in culture confluence | minimal | enhances attachment and growth | slightly enhanced
O=S(=O)(c1cccc2cnccc12)N1CCCNCC1 [Fasudil] | some colonies could be observed to attach and grow | – | – | – | –
